Data from patent US20120202794A1 (priority 2011, published 2012).

Key:
HCV Replicon 1b = experiment: HCV inhibition assay, HCV replicon 1b (Clone A or ET-lunet cells; RT-PCR or luciferase reporter); assay type: cell-based; conditions: Hepatitis C virus, 96 h, HCV replicon 1b; 4 days incubation; read-out: Replicon 1b potency EC90
Summary of the method: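 Clone A (1500/well) or ET-lunet (3000/well) replicon cells treated with serially diluted compounds (0.5% DMSO, no G418) for 4 days at 37 °C. HCV RNA measured by one-step RT-PCR normalized to rRNA (ΔΔCt) or by luciferase luminescence versus DMSO controls; EC50/EC90 by curve fitting.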

[1] = Cell cytotoxicity assay (MTS), CC90 as reported in Table 1, cell line not stated; assay type: cell-based; conditions: human; cell line not given
Summary of the method: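 Compounds, serially diluted from 100 μM, were incubated 8 days at 37° C with Huh7, HepG2 or BxPC3 (2×10^3 cells/well) or CEM (5×10^3 cells/well). Viability was read by MTS, 2 h, absorbance 490 nm. CC90 (90% inhibition) was taken against untreated cells.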

Compound	EC90 (HCV Replicon 1b)	CC90 at 8 days [1]
CC(C)C[C@H]1CN(Cc2cc(-c3ccc(Cl)cc3)on2)[C@@H](CC(C)C)C(=O)N1 [Compound 197]	0.24 µM	> 10 µM
CC(C)C[C@H]1CN(Cc2cc(-c3ccc(Br)cc3)on2)[C@@H](CC(C)C)C(=O)N1 [Compound 198]	0.55 µM	> 10 µM
Cc1ccc(-c2cc(CN3C[C@H](CC(C)C)NC(=O)[C@@H]3CC(C)C)no2)cc1 [Compound 199]	2.15 µM	> 10 µM
COc1ccc(-c2cc(CN3C[C@H](CC(C)C)NC(=O)[C@@H]3CC(C)C)no2)cc1 [Compound 200, (3S,6S)-3,6-Diisobutyl-4-((5-(4-methoxyphenyl)isoxazol-3-yl)methyl)piperazin-2-one]	5.79 µM	> 10 µM
CC(C)C[C@H]1CN(Cc2cc(-c3ccco3)on2)[C@@H](CC(C)C)C(=O)N1 [Compound 201, (3S,6S)-4-((5-(Furan-2-yl)isoxazol-3-yl)methyl)-3,6-diisobutylpiperazin-2-one]	1.82 µM	> 10 µM
CC(C)C[C@H]1CN(Cc2cc(-c3cccs3)on2)[C@@H](CC(C)C)C(=O)N1 [Compound 202, (3S,6S)-3,6-Diisobutyl-4-((5-(thiophen-2-yl)isoxazol-3-yl)methyl)piperazin-2-one]	0.88 µM	> 10 µM
CC(C)C[C@H]1C(=O)N[C@@H](C(C)(C)C)CN1Cc1cc(-c2ccc(F)cc2)on1 [Compound 205, (3S,6S)-6-(tert-butyl)-4-((5-(4-fluorophenyl)isoxazol-3-yl)methyl)-3-isobutylpiperazin-2-one]	8.9 µM	> 10 µM
CCC[C@H]1CN(Cc2cc(-c3ccc(F)cc3)on2)[C@@H](CC(C)C)C(=O)N1 [Compound 206, (3S,6S)-4-((5-(4-fluorophenyl)isoxazol-3-yl)methyl)-3-isobutyl-6-propylpiperazin-2-one]	0.21 µM	> 10 µM
CC(C)C[C@H]1C(=O)N[C@@H](C2CCCCC2)CN1Cc1cc(-c2ccc(F)cc2)on1 [Compound 207, (3S,6S)-6-cyclohexyl-4-((5-(4-fluorophenyl)isoxazol-3-yl)methyl)-3-isobutylpiperazin-2-one]	0.86 µM	> 10 µM
CC(C)C[C@H]1C(=O)N[C@@H](C2CCCC2)CN1Cc1cc(-c2ccc(F)cc2)on1 [Compound 208, (3S,6S)-6-cyclopentyl-4-((5-(4-fluorophenyl)isoxazol-3-yl)methyl)-3-isobutylpiperazin-2-one]	0.21 µM	> 10 µM
CC(C)C[C@H]1C(=O)N[C@@H](CC2CC2)CN1Cc1cc(-c2ccc(Cl)cc2)on1 [Compound 209, (3S,6S)-4-((5-(4-chlorophenyl)isoxazol-3-yl)methyl)-6-(cyclopropylmethyl)-3-isobutylpiperazin-2-one]	0.67 µM	> 10 µM
CCC[C@H]1CN(Cc2cc(-c3ccc(Cl)cc3)on2)[C@@H](CC(C)C)C(=O)N1 [Compound 210, (3S,6S)-4-((5-(4-chlorophenyl)isoxazol-3-yl)methyl)-3-isobutyl-6-propylpiperazin-2-one]	0.32 µM	> 10 µM
CC(C)C[C@H]1C(=O)N[C@@H](C2CCCCC2)CN1Cc1cc(-c2ccc(Cl)cc2)on1 [Compound 211, (3S,6S)-4-((5-(4-chlorophenyl)isoxazol-3-yl)methyl)-6-cyclohexyl-3-isobutylpiperazin-2-one]	0.41 µM	> 10 µM
CC(C)C[C@H]1C(=O)N[C@@H](C2CCCC2)CN1Cc1cc(-c2ccc(Cl)cc2)on1 [Compound 212, (3S,6S)-4-((5-(4-chlorophenyl)isoxazol-3-yl)methyl)-6-cyclopentyl-3-isobutylpiperazin-2-one]	0.26 µM	> 10 µM
CCC(C)[C@H]1CN(Cc2cc(-c3ccc(F)cc3)on2)[C@@H](CC(C)C)C(=O)N1 (stereo partly drawn) [Compound 214]	0.72 µM	> 10 µM
CC(C)C[C@H]1C(=O)N[C@@H](c2ccccc2)CN1Cc1cc(-c2ccc(F)cc2)on1 [Compound 215, (3S,6S)-4-((5-(4-fluorophenyl)isoxazol-3-yl)methyl)-3-isobutyl-6-phenylpiperazin-2-one]	0.19 µM	> 10 µM
CC(C)C[C@H]1C(=O)N[C@@H](C2CC2)CN1Cc1cc(-c2ccc(F)cc2)on1 [Compound 216, (3S,6S)-6-cyclopropyl-4-((5-(4-fluorophenyl)isoxazol-3-yl)methyl)-3-isobutylpiperazin-2-one]	1.6 µM	> 10 µM
CSC[C@H]1CN(Cc2cc(-c3ccc(F)cc3)on2)[C@@H](CC(C)C)C(=O)N1 [Compound 217, (3S,6R)-4-[5-(4-Fluoro-phenyl)-isoxazol-3-ylmethyl]-3-isobutyl-6-methylsulfanylmethyl-piperazin-2-one]	0.82 µM	> 10 µM
CSC[C@H]1CN(Cc2cc(-c3ccc(Cl)cc3)on2)[C@@H](CC(C)C)C(=O)N1 [Compound 218, (3S,6R)-4-((5-(4-chlorophenyl)isoxazol-3-yl)methyl)-3-isobutyl-6-((methylthio)methyl)piperazin-2-one]	0.75 µM	> 10 µM
CC(C)C[C@H]1C(=O)N[C@@H](c2ccccc2)CN1Cc1cc(-c2ccc(Cl)cc2)on1 [Compound 219, (3S,6S)-4-((5-(4-chlorophenyl)isoxazol-3-yl)methyl)-3-isobutyl-6-phenylpiperazin-2-one]	4.5 µM	> 10 µM
CC(C)C[C@H]1CN(Cc2ccc(F)cc2C(F)(F)F)[C@@H](CC(C)C)C(=O)N1 [Compound 220, (3S,6S)-4-(4-fluoro-2-(trifluoromethyl)benzyl)-3,6-diisobutylpiperazin-2-one]	8.35 µM	> 10 µM
CC(C)C[C@H]1CN(Cc2ccc(F)c(C(F)(F)F)c2)[C@@H](CC(C)C)C(=O)N1 [Compound 221, (3S,6S)-4-(4-fluoro-3-(trifluoromethyl)benzyl)-3,6-diisobutylpiperazin-2-one]	> 10 µM	> 10 µM
CC(C)C[C@H]1CN(Cc2cc(F)ccc2F)[C@@H](CC(C)C)C(=O)N1 [Compound 222, (3S,6S)-4-(2,5-difluorobenzyl)-3,6-diisobutylpiperazin-2-one]	9.7 µM	> 10 µM
CC(C)C[C@H]1CN(Cc2cc(C(F)(F)F)cc(C(F)(F)F)c2)[C@@H](CC(C)C)C(=O)N1 [Compound 223, (3S,6S)-4-(3,5-Bis-trifluoromethyl-benzyl)-3,6-diisobutyl-piperazin-2-one]	4.49 µM	> 10 µM
CC(C)C[C@H]1CN(Cc2c(F)cccc2F)[C@@H](CC(C)C)C(=O)N1 [Compound 224, (3S,6S)-4-(2,6-Difluoro-benzyl)-3,6-diisobutyl-piperazin-2-one]	8.36 µM	> 10 µM
CCc1ccc(CN2C[C@H](CC(C)C)NC(=O)[C@@H]2CC(C)C)cc1 [Compound 225, (3S,6S)-4-(4-Ethyl-benzyl)-3,6-diisobutyl-piperazin-2-one]	3.51 µM	> 10 µM
CC(C)C[C@H]1CN(Cc2ccc(Cl)c(Cl)c2)[C@@H](CC(C)C)C(=O)N1 [Compound 226, (3S,6S)-4-(3,4-Dichloro-benzyl)-3,6-diisobutyl-piperazin-2-one]	8.87 µM	> 10 µM
